{
  "source": "patent US20200261434A1",
  "about": "“IDH1 INHIBITORS FOR THE TREATMENT OF HAEMATOLOGICAL MALIGNANCIES AND SOLID TUMORS” (Agios Pharmaceuticals, Inc., priority 2016, published 2020)",
  "key": {"[1]": {"assay": "solubility in fasted state simulated intestinal fluid (FASSIF)", "type": "physicochemical", "settings": "pH 6.1, at 4 hours"}, "[2]": {"assay": "Phase 1/2 clinical study AG221-C-001, safety", "type": "in vivo, human", "settings": "100 mg", "from_the_text": "Toxicity severity will be graded according to the National Cancer Institute Common Terminology Criteria for Adverse Events (NCI CTCAE) Version 4.03. A DLT is defined as outlined below.\nMonitoring of AEs, including determination of DLTs, serious adverse events (SAEs), and AEs leading to discontinuation; safety laboratory parameters; physical examination findings; vital signs; 12-lead ECGs; LVEF; and ECOG PS.\nThe severity of AEs will be assessed by the NCI CTCAE, Version 4.03."}, "IDH2 R172K": {"target": "T1, IDH2 R172K (Homo sapiens, UniProt P48735, R172K)", "T1 construct": "endogenous in cells; host or cells: malignant haematologic cells of human subjects (in vivo; 2-HG measured in blood)", "T1 sequence (P48735 40-452 R172K)": "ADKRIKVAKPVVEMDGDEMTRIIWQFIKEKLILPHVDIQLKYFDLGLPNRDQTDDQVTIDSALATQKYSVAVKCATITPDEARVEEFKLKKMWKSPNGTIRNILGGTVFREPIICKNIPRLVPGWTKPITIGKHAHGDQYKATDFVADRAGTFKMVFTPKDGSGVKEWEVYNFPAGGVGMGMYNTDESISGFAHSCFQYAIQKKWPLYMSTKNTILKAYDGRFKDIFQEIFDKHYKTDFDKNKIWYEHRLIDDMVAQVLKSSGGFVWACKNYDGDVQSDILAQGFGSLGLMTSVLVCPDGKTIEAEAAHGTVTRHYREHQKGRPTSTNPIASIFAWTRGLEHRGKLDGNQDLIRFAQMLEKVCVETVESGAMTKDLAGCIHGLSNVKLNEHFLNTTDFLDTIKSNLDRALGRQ", "assay": "Phase 1/2 clinical study AG221-C-001, pharmacodynamic response (2-HG), R172K subjects", "type": "in vivo", "settings": "subjects with R172K mutation", "from_the_text": "(§1) Three days prior to the start of daily dosing of AG-221 (Day −3), the first 3 subjects enrolled in each cohort in the dose escalation phase and the first 15 subjects enrolled in each arm of Part 1 Expansion will receive a single dose of AG-221 in clinic and have serial blood and urine samples obtained for determination of blood and urine concentrations of AG-221, its metabolite AGI-16903, 2-HG, and α-KG. A full 72-hour PK/PD profile will be conducted: subjects will be required to remain at the study site for 10 hours on Day −3 and return on Days −2, −1, and 1 for 24-, 48-, and 72-hour samples, respectively. During the in-clinic period on Day −3, clinical observation and serial 12-lead ECGs and vital signs assessments will be conducted.\n(§2) Subjects in the dose escalation phase and Part 1 Expansion also will undergo PK/PD assessments over a 10-hour period on C1D15, C2D1, and C4D1. […] These subjects will have urine collected for PK/PD evaluation at screening; prior to dosing on C1D15, C2D1 and Day 1 of all cycles thereafter; and at the End of Treatment visit. Available bone marrow biopsy samples also will be assessed for 2-HG and α-KG levels.\n(§3) Serial blood sampling for determination of concentration-time profiles of COMPOUND 1 and its metabolite (6-(6-(trifluoromethyl)pyridin-2-yl)-N2-(2-(trifluoromethyl)pyridin-4-yl)-1,3,5-triazine-2,4-diamine). […]"}, "[3]": {"system": "advanced hematologic malignancies with an IDH2 mutation", "assay": "Phase 1/2 clinical study AG221-C-001, clinical activity (overall response rate)", "type": "in vivo, human", "settings": "44 subjects treated at 100 mg QD, preliminary efficacy data", "source_text": "Response to treatment and treatment decisions in all subjects will be determined by the Investigators based on modified International Working Group (IWG) response criteriaor other appropriate response criteria for the malignancy under study.\nOverall response rate (ORR), the primary efficacy endpoint, is defined as the rate of responders including complete remission (CR), CR with incomplete platelet recovery (CRp), marrow CR (mCR) (morphologic leukemia-free state [MLFS] for subjects with AML), CR with incomplete hematologic recovery (CRi), and partial remission (PR). Other measures of clinical activity including complete remission rate (CRR), duration of remission/response, event-free survival, overall survival, and time to remission/response will be summarized.\nFor Phase 1 Dose Escalation/Part 1 Expansion, the efficacy analysis of response rates as assessed by the site Investigators using modified International Working Group (IWG) response criteria will be conducted in Full Analysis Set for each dose level, expansion arm, and overall if appropriate."}, "IDH2 R140Q": {"target": "T2, IDH2 R140Q (Homo sapiens, UniProt P48735, R140Q)", "T2 construct": "endogenous in cells; host or cells: malignant haematologic cells of human subjects (in vivo; 2-HG measured in plasma)", "T2 sequence (P48735 40-452 R140Q)": "T1 sequence (P48735 40-452 R172K) with R101Q, K133R", "assay": "Phase 1/2 clinical study AG221-C-001, pharmacodynamic response (2-HG plasma levels), R140Q subjects", "type": "in vivo", "settings": "most subjects with R140Q mutation, all doses, by Day 1 of Cycle 2", "from_the_text": "as §1, §2, §3"}},
  "note": "Substitutions are numbered along the chain they refer to.",
  "data": [
    {"smiles": "N#Cc1ccnc(N2C(=O)CC[C@H]2C(=O)N(c2cncc(F)c2)[C@H](C(=O)NC2CC(F)(F)C2)c2ccccc2Cl)c1", "note": "[Form 2, (S)—N—((S)-1-(2-chlorophenyl)-2-((3,3-difluorocyclobutyl)amino)-2-oxoethyl)-1-(4-cyanopyridin-2-yl)-N-(5-fluoropyridin-3-yl)-5-oxopyrrolidine-2-carboxamide]", "values": [
      {"measurement": "solubility at 4 h", "setting": "[1]", "value": "~18", "unit": "µg/mL"}
    ]},
    {"smiles": "CC(C)(O)CNc1nc(Nc2ccnc(C(F)(F)F)c2)nc(-c2cccc(C(F)(F)F)n2)n1", "note": "[COMPOUND 1, 2-methyl-1-[(4-[6-(trifluoromethyl)pyridin-2-yl]-6-{[2-(trifluoromethyl)pyridin-4-yl]amino}-1,3,5-triazin-2-yl)amino]propan-2-ol]", "values": [
      {"measurement": "safety profile, including ≥Grade 3", "setting": "[2]", "value": "consistent with that of lower doses"},
      {"measurement": "inhibition of 2-HG and exposure, dependence on dose", "setting": "IDH2 R172K", "value": "Increasing dose is associated with higher exposure and inhibition of 2-HG"},
      {"measurement": "overall response rate", "setting": "[3]", "value": 36.4, "unit": "%"},
      {"measurement": "inhibition of 2-HG plasma levels", "setting": "IDH2 R140Q", "value": "up to 98%"}
    ]}
  ]
}
